According to the supplement of paper PMC10307832:

Compound: C1CC(C2=C(C1)C3=C(N2)C=CC(=C3)Cl)C(=O)N [Selisistat] + COc1cccc2cc(-c3nc([C@H]4CC[C@H](C(=O)O)CC4)n4ncnc(N)c34)[nH]c12 [OSI-027] (partner 0.5 µM)
Test: relative viability (nuclei count vs DMSO), 5 days (fraction); higher = more cells survive
Conditions: first compound 0.4 µM
In short: (§1)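 Lung cancer cell lines, seeded in 1536-well plates, were treated the following day by pin tool with a single drug or with five library-drug doses (not always all listed) in √10 steps on top of a fixed anchor-drug dose. Cells were fixed and nuclei stained in one step after 5 days, and nuclei were counted. Relative viability is the nuclei count for treated wells divided by that for vehicle wells, reported as medians of duplicate plates.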

Row | Cell Line | relative viability
1 | LCLC-97TM1 | 0.59
2 | NCI-H2009 | 0.659
3 | A-427 | 0.455
4 | NCI-H441 | 0.658
5 | NCI-H661 | 0.749
6 | NCI-H1734 | 0.616
7 | NCI-H460 | 0.695
8 | NCI-H2347 | 0.61
9 | SK-LU-1 | 0.431
10 | NCI-H1395 | 0.691
11 | 201T | 0.797
12 | NCI-H1915 | 0.678
13 | HCC-827 | 0.763
14 | LXF-289 | 0.797
15 | NCI-H23 | 0.56
16 | NCI-H647 | 0.746

Row | Cell Line | relative viability
17 | CAL-12T | 0.726
18 | NCI-H1651 | 0.605
19 | EPLC-272H | 0.274
20 | NCI-H2228 | 0.57
21 | NCI-H1792 | 0.745
22 | NCI-H1355 | 0.465
23 | NCI-H3122 | 0.9
24 | NCI-H1437 | 0.908
25 | NCI-H1755 | 0.745
26 | NCI-H2023 | 0.492
27 | HCC-15 | 0.81
28 | NCI-H1793 | 0.28
29 | PC-14 | 0.973
30 | EKVX | 0.756
31 | LC-2-ad | 0.987
32 | NCI-H1944 | 0.485

Same assay, conditions: first compound 1.265 µM

Row | Cell Line | relative viability
33 | HCC-78 | 0.346
34 | NCI-H322M | 0.583
35 | LCLC-97TM1 | 0.653
36 | NCI-H2009 | 0.662
37 | A-427 | 0.432
38 | NCI-H441 | 0.532
39 | NCI-H661 | 0.81
40 | NCI-H1734 | 0.636
41 | NCI-H460 | 0.667
42 | NCI-H2347 | 0.403
43 | SK-LU-1 | 0.366
44 | NCI-H1395 | 0.675
45 | 201T | 0.705
46 | NCI-H1915 | 0.646
47 | HCC-827 | 0.766
48 | LXF-289 | 0.806
49 | NCI-H23 | 0.602

Row | Cell Line | relative viability
50 | NCI-H647 | 0.58
51 | CAL-12T | 0.535
52 | NCI-H1651 | 0.744
53 | EPLC-272H | 0.237
54 | NCI-H2228 | 0.541
55 | NCI-H1792 | 0.68
56 | NCI-H1355 | 0.426
57 | NCI-H3122 | 0.933
58 | NCI-H1437 | 0.915
59 | NCI-H1755 | 0.736
60 | NCI-H2023 | 0.405
61 | HCC-15 | 0.676
62 | NCI-H1793 | 0.245
63 | PC-14 | 0.783
64 | EKVX | 0.754
65 | NCI-H1944 | 0.394

Same assay, conditions: first compound 4 µM

Row | Cell Line | relative viability
66 | HCC-78 | 0.316
67 | NCI-H322M | 0.461
68 | NCI-H2009 | 0.424
69 | A-427 | 0.301
70 | NCI-H441 | 0.481
71 | NCI-H661 | 0.744
72 | NCI-H1734 | 0.491
73 | NCI-H460 | 0.471
74 | NCI-H2347 | 0.246
75 | SK-LU-1 | 0.334
76 | NCI-H1395 | 0.53
77 | 201T | 0.555
78 | NCI-H1915 | 0.425
79 | HCC-827 | 0.705
80 | LXF-289 | 0.667
81 | NCI-H23 | 0.508
82 | NCI-H647 | 0.614
83 | CAL-12T | 0.472
84 | NCI-H1651 | 0.705
85 | NCI-H2228 | 0.484
86 | NCI-H1355 | 0.281
87 | NCI-H3122 | 0.444
88 | NCI-H1437 | 0.631
89 | NCI-H1755 | 0.739
90 | NCI-H2023 | 0.347
91 | PC-14 | 0.755
92 | EKVX | 0.689
93 | LC-2-ad | 0.693

Same assay, conditions: first compound 12.65 µM

Row | Cell Line | relative viability
94 | HCC-78 | 0.382
95 | NCI-H322M | 0.507
96 | LCLC-97TM1 | 0.553
97 | NCI-H2009 | 0.509
98 | A-427 | 0.421
99 | NCI-H441 | 0.544
100 | NCI-H661 | 0.629
101 | NCI-H1734 | 0.545
102 | NCI-H460 | 0.557
103 | NCI-H2347 | 0.482
104 | SK-LU-1 | 0.359
105 | NCI-H1395 | 0.502
106 | 201T | 0.587
107 | NCI-H1915 | 0.605
108 | HCC-827 | 0.746
109 | LXF-289 | 0.788
110 | NCI-H23 | 0.529

Row | Cell Line | relative viability
111 | NCI-H647 | 0.713
112 | CAL-12T | 0.53
113 | NCI-H1651 | 0.674
114 | EPLC-272H | 0.289
115 | NCI-H2228 | 0.651
116 | NCI-H1792 | 0.644
117 | NCI-H1355 | 0.407
118 | NCI-H3122 | 0.892
119 | NCI-H1437 | 0.891
120 | NCI-H1755 | 0.686
121 | NCI-H2023 | 0.401
122 | HCC-15 | 0.622
123 | NCI-H1793 | 0.299
124 | PC-14 | 0.819
125 | EKVX | 0.69
126 | LC-2-ad | 0.85
127 | NCI-H1944 | 0.433

Same assay, conditions: first compound 40 µM

Row | Cell Line | relative viability
128 | HCC-78 | 0.359
129 | NCI-H322M | 0.576
130 | LCLC-97TM1 | 0.619
131 | NCI-H2009 | 0.535
132 | A-427 | 0.57
133 | NCI-H441 | 0.754
134 | NCI-H661 | 0.564
135 | NCI-H1734 | 0.685
136 | NCI-H460 | 0.666
137 | NCI-H2347 | 0.46
138 | SK-LU-1 | 0.416
139 | NCI-H1395 | 0.622
140 | 201T | 0.739
141 | NCI-H1915 | 0.646
142 | HCC-827 | 0.768
143 | LXF-289 | 0.838
144 | NCI-H23 | 0.605

Row | Cell Line | relative viability
145 | NCI-H647 | 0.829
146 | CAL-12T | 0.694
147 | NCI-H1651 | 0.764
148 | EPLC-272H | 0.289
149 | NCI-H2228 | 0.569
150 | NCI-H1792 | 0.689
151 | NCI-H1355 | 0.404
152 | NCI-H3122 | 1.01
153 | NCI-H1437 | 0.783
154 | NCI-H1755 | 0.746
155 | NCI-H2023 | 0.406
156 | HCC-15 | 0.618
157 | NCI-H1793 | 0.345
158 | PC-14 | 0.931
159 | EKVX | 0.697
160 | LC-2-ad | 0.794
161 | NCI-H1944 | 0.441

Compound: C1CC(C2=C(C1)C3=C(N2)C=CC(=C3)Cl)C(=O)N [Selisistat] + N=C(N)NC(=N)NCCc1ccccc1 [Phenformin] (partner 250 µM)
Test: as above
Conditions: first compound 0.4 µM
In short: as §1

Row | Cell Line | relative viability
162 | HCC-78 | 0.774
163 | NCI-H322M | 0.768
